Data: patent US12285399B2, “Composition comprising bornyl acetate or pharmaceutically acceptable salt thereof as active ingredient for prevention or treatment of stress-related disorder” (UNIVERSITY-INDUSTRY COOPERATION GROUP OF KYUNG HEE …, priority 2019, dated 2025)

Legend:
Assay type in all cases: in vivo, C57BL/6NTac mice
[1] = Body weight change in chronic restrained stress (CRS) depression model; conditions: CRS+BA group, oral, 14 days of restrained stress, 14th day
Experimental: In order to confirm the antidepressant efficacy of bornyl acetate on the animal model of stress depression, an animal model of depression induced by chronic restrained stress (CRS) was prepared. Specifically, the animal model, 8-week-old male C57BL/6NTac mice after birth (Narabiotechnology, Korea; weight 22-24 g) had been stabilized for 1 week. A 50 ml conical tube (SPL Life sciences, Pocheon, Korea) was punched to make a hole, thereby making a restraint frame. The mice were put in the frame and restrained for 2 hours every day for 14 days. After restraint, the mice were allowed to freely ingest water and food in the home cage. Bornyl acetate (25, 50 and 100 mg/kg) of the present invention was dissolved in 0.1 M PBS, and the mixture was orally administered 1 hour before inducing restrained stress every day. Bornyl acetate was administered in a dose per individual of 100 μl. Specifically, the mice were weighed during or after applying restrained stress for 2 hours per day for 14 days, followed by a tail suspension test and forced swimming test were performed, and serum stress hormone (corticosterone) levels were measured (FIGS. 1A and 1B).

c-Fos protein = test: Western blot of c-Fos protein in brain (hippocampus and amygdala) of CRS model; conditions: CRS+BA group
Experimental: In order to confirm the antidepressant efficacy of bornyl acetate on the animal model of stress depression, an animal model of depression induced by chronic restrained stress (CRS) was prepared. Specifically, the animal model, 8-week-old male C57BL/6NTac mice after birth (Narabiotechnology, Korea; weight 22-24 g) had been stabilized for 1 week. A 50 ml conical tube (SPL Life sciences, Pocheon, Korea) was punched to make a hole, thereby making a restraint frame. The mice were put in the frame and restrained for 2 hours every day for 14 days. After restraint, the mice were allowed to freely ingest water and food in the home cage. The hippocampus and amygdala of the brain were excised. They were added to 200 μl of a protein lysis buffer (10 mM Tris, 0.5 mM EDTA, 0.25 M sucrose), and proteins were isolated using a grinder. The isolated protein was quantified by the Bradford method (Bio-rad, USA) using bovine serum albumin (BSA, Sigma, USA), and then 25 μg of the protein was separated by 10% sodium dodecyl sulfate-polyacrylamide gel electrophoresis (SDS-PAGE) and transferred to polyvinylidene difluoride (PVDF) membrane (Gendepot, UK). PVDF membranes were blocked in 5% skimmed milk (BD, USA) for 1 hour. […] Identification and quantitative analysis of proteins were analyzed using an imaging device ChemiDoc XRS+ (Bio-Rad). […]

COX-2 mRNA = test: RT-PCR of COX-2 mRNA in brain (hippocampus and amygdala) of CRS model; conditions: CRS+BA group, 100 mg/kg oral
Experimental: In order to confirm the antidepressant efficacy of bornyl acetate on the animal model of stress depression, an animal model of depression induced by chronic restrained stress (CRS) was prepared. Specifically, the animal model, 8-week-old male C57BL/6NTac mice after birth (Narabiotechnology, Korea; weight 22-24 g) had been stabilized for 1 week. A 50 ml conical tube (SPL Life sciences, Pocheon, Korea) was punched to make a hole, thereby making a restraint frame. The mice were put in the frame and restrained for 2 hours every day for 14 days. After restraint, the mice were allowed to freely ingest water and food in the home cage.
In order to confirm the inhibitory effect of bornyl acetate on the expression of inflammatory mediators in an animal model of depression induced by chronic restrained stress, mRNA expression was confirmed using reverse transcription-polymerase chain reaction (RT-PCR). Bornyl acetate (100 mg/kg) was orally administered 1 hour before inducing the restrained stress every day. […]
Western blot and RT-PCR analysis were performed in the brain (hippocampus and amygdala) of an animal model of chronic restrained stress (CRS)-induced stress depression to exam and quantify the activation level of inflammatory mediators, thereby verifying the modulating effect of bornyl acetate on the inflammatory response in the brain. […]

Structure (SMILES): CC(=O)OC1CC2CCC1(C)C2(C)C (centres unmarked) [BA, bornyl acetate]
- body weight change [1]: no significant increase or decrease
- protein expression of c-Fos (CRS-induced increase) (c-Fos protein; amygdala): significantly inhibited
- protein expression of c-Fos (CRS-induced increase) (c-Fos protein; hippocampus): significantly inhibited
- mRNA expression of COX-2 (CRS-induced increase) (COX-2 mRNA; amygdala): significantly inhibited
- mRNA expression of COX-2 (CRS-induced increase) (COX-2 mRNA; hippocampus): significantly inhibited
